From US20200069679A1, “NINTEDANIB FOR USE IN METHODS FOR THE TREATMENT OF INTERSTITIAL LUNG DISEASES BY COADMINISTRATION WITH OLADATEROL” (Boehringer Ingelheim International GmbH, priority 2016, published 2020)

Tested on: TGF-β induced ET-1 release in cultured human lung fibroblasts (IPF-HLF)
Test: TGF-β induced ET-1 release in cultured human lung fibroblasts from IPF patients (ELISA of supernatant)
Format: cell-based
Settings: IPF-HLF stimulated with TGF-β for 48 h, n=6 incubations, normalized to unstimulated (=100% inhibition) and TGF-β-stimulated (=0% inhibition) ET-1 levels
Procedure: The principle of the assay is the incubation of IPF-HLF with transforming growth factor beta (TGF-β) for 48 h. In the cell culture supernatant the concentration of the pro-fibrotic mediator endothelin-1 (ET-1) was determined by enzyme linked immune sorbent assay.
HLFs from 5 different patients with idiopathic pulmonary fibrosis (IPF) were used to do repeated measurements. For the control groups without TGF-β stimulation, data sets from 11 incubations were included and for TGF-β-stimulated fibroblasts data sets from 12 incubations were included. For all olodaterol and/or nintedanib-treated groups, n=6 incubations were conducted. The experiments were conducted in the presence of nintedanib at 30 nM concentration and/or olodaterol at 1 pM (FIG. 1), 10 pM (FIG. 2) and 100 pM (FIG. 3) concentrations, respectively.

| Structure (SMILES) | reduction of ET-1 release (olodaterol at 1-100 pM) | reduction of ET-1 release (nintedanib at 30 nM) |
| --- | --- | --- |
| COc1ccc(CC(C)(C)NC[C@H](O)c2cc(O)cc3c2OCC(=O)N3)cc1 [olodaterol] | 1%-47% | – |
| COC(=O)c1ccc2c(c1)NC(=O)/C2=C(\Nc1ccc(N(C)C(=O)CN2CCN(C)CC2)cc1)c1ccccc1 [nintedanib] | – | 7% |
